Consider one molecule from paper PMC5120204, “Identification of an orally active small-molecule PTHR1 agonist for the treatment of hypoparathyroidism” (Nature Communications, 2016).

What is called half-life is the time in which the quantity being followed falls by half. A high value points to slow loss. What is called AUC(0-inf) is total exposure, with the tail of the curve extrapolated. Lower therefore signals less exposure. What is called Cmax is the highest concentration seen after dosing. For orientation: Tmax means the time at which the peak concentration occurs.

The target in data set [1] is T1, PTHR1 (Rattus norvegicus, UniProt P25961).
T1 construct: UMR-106 cells, which natively express rat PTHR1; endogenous in cells; host or cells: UMR-106 (ATCC)
T1 sequence (P25961 27-591): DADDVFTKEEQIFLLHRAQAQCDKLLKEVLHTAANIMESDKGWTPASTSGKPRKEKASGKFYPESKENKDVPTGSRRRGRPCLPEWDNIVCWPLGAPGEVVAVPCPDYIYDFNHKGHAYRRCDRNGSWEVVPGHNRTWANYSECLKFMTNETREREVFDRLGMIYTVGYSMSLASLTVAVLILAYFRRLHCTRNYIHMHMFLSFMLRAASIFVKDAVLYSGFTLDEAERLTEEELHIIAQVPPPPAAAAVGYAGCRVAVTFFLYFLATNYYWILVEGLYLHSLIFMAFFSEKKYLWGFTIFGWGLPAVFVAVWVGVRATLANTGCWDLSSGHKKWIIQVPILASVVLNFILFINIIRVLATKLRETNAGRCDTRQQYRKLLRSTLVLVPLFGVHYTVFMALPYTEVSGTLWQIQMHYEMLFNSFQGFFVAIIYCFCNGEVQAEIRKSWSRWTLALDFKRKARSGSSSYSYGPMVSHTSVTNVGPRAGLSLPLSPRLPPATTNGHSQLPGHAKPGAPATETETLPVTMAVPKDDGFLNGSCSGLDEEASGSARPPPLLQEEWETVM
Briefly: cAMP washout assay in UMR-106 cells. It is filed as cell-based. To be noted: washout 0–120 min. As for the experimental part:
The duration of cAMP signalling capacity of PCO371, hPTH(1–34) and LA-PTH (synthesized at American Peptide Company, Inc.) was assessed in a time-course experiment in UMR-106 cells (cAMP washout assay). The cells were treated with assay medium (2 mg m l^−1 BSA, and 2 mmol l^−1 HEPES/McCoy's 5A medium, Life Technologies) alone (basal) or with ligands (1 μmol l^−1 for hPTH(1–34), 0.1 μmol l^−1 for LA-PTH and 0.1 mmol l^−1 for PCO371) in the assay medium for 10 min, washed (t=0), incubated for 0, 30, 60 and 120 min (washout phase), and then further incubated for 5 min in the assay medium containing IBMX (2 mmol l^−1). Incubations were terminated with 50 mmol l^−1 HCl. The cAMP concentrations were determined using a cAMP EIA kit (GE Healthcare).

Data set [2] relates to TPTX rats. In words: Single administration study in TPTX rats. It is filed as in vivo, rat. As to conditions: TPTX rats, single oral administration. The method, then: TPTX was carried out in 6-week-old female Crl:CD(SD) rats (Charles River Laboratories). Rats with serum Ca levels of <8.0 mg dl^−1 at 5 days after surgery were used for the experiment. The rats were divided into six groups, each with a similar mean value of serum Ca levels and body weight. TPTX rats were treated once orally (vehicle or PCO371 at 1.3, 6.5 or 33 mg kg^−1) or subcutaneously (vehicle or hPTH(1–84) (Chugai Pharmaceutical) at 9 nmol kg^−1). Six TPTX rats were assigned to each dose group. The sample size was determined based on previous experiments and a published study with hPTHs and LA-PTH in our laboratories[24] (n=5–6). Vehicle for PCO371 was the same as in the OVX rat study, and phosphate-citrate buffer (pH 6.0) was used as vehicle for hPTH(1–84). Under isoflurane anaesthesia, jugular vein blood was collected immediately before and at 1, 2, 6, 10 and 24 h after administrations to measure serum Ca (o-CPC method, Wako Pure Chemical Industries) and Pi levels (xanthine oxidase method, Wako Pure Chemical Industries).
In another experiment, the effects of a single treatment with PCO371 or hPTH(1–34) on serum Ca and Pi in TPTX rats (6-week-old) were evaluated at the dose of 3, 9.5 or 30 mg kg^−1 (PCO371, p.o.) or 9 nmol kg^−1 (hPTH(1–34), s.c.) according to the same method as that described above.

In data set [3] the test system is normal dogs. Briefly: Preclinical toxicology studies. It is filed as in vivo, dog.
Data set [4] is described as follows: Pharmacokinetics in normal rats. As to conditions: for half-life / AUC(0-inf) / Cmax / Tmax: female, RccHan:WIST, rat, plasma, po.
Description: PCO371 was administered at a dose of 2, 6 or 18 mg kg^−1 orally to 7-week-old normal female rats (RccHan: WIST, JLA; three rats for each dose group), or at a dose of 2, 6 or 18 mg kg^−1 orally to 7-week-old female TPTX rats [Crl:CD(SD), Charles River Laboratories; three TPTX rats for each dose group] or at 30 mg kg^−1 orally or 3, 10 mg kg^−1 intravenously to 55-week-old OVX rats as described above. Blood samples were collected at 15 and 30 min, and 1, 2, 4, 8 and 24 h after administration. […] The concentrations of plasma PCO371 were determined by liquid chromatography–tandem mass spectrometry [LC-MS/MS (API-3200 (AB SCIEX), detection limit: 1 ng ml^−1).

As to `Cc1cc(N2C(=O)NC(=O)C2(C)C)cc(C)c1CCS(=O)(=O)N1CCC2(CC1)N=C(c1ccc(OC(F)(F)F)cc1)NC2=O` [PCO371, 1-{3,5-dimethyl-4-[2-({4-oxo-2-[4-(trifluoromethoxy)phenyl]-1,3,8-triazaspiro[4.5]dec-1-en-8-yl}sulfonyl)ethyl]phenyl}-5,5-dimethylimidazolidine-2,4-dione], in data set [1], the “duration of cAMP-signalling response” value is given as “much shorter than that of hPTH(1–34)”. Moreover, in data set [2], the “serum Ca” value is recorded as “dose-dependently increased”. Besides, the “serum Pi” value in data set [2] was “decreased”. The serious side effects entry in data set [3] (one-month toxicology studies in normal dogs) was “not any serious side effects”; in data set [3] (preclinical toxicology studies), “no serious side effects”. Besides, the half-life was 1.5 to 1.7 h in data set [4], 1.5 ± 0.1 h in data set [4] (2 mg/kg), 1.4 ± 0.2 h in data set [4] (6 mg/kg) and 1.7 ± 0.3 h in data set [4] (18 mg/kg). The AUC(0-inf) was 374 ± 187 ng·h/mL in data set [4] (2 mg/kg), 2360 ng·h/mL in data set [4] (6 mg/kg) and 18600 ng·h/mL in data set [4] (18 mg/kg). Moreover, the Cmax stood at 92.5 ± 37.1 ng/mL in data set [4] (2 mg/kg), 727 ± 103 ng/mL in data set [4] (6 mg/kg) and 4560 ng/mL in data set [4] (18 mg/kg). The Tmax in data set [4] (2 mg/kg) is 1.5 ± 0.9 h; in data set [4] (6 mg/kg), 1 h; in data set [4] (18 mg/kg), 1.3 ± 0.6 h. The “BA (oral bioavailability)” value in data set [4] (normal rats, p.o. 2 mg kg^−1) is on record as 34%. Moreover, the “time at which Cmax was attained” value in data set [4] (normal rats, single oral dose, dose range tested) is 1 to 1.5 h.
